Source: patent US5424334A, “Peptide mimetic compounds useful as platelet aggregation inhibitors” (G. D. Searle & Co., priority 1991, dated 1995)
Counter-ions that a name gives are not always drawn.

test system: Dog PRP (platelet aggregation); test: In-vitro platelet aggregation in PRP (ADP-induced); format: cell-based; conditions: Canis lupus familiaris, adenosine 5'diphosphate (ADP) induced, by linear regression of dose response curve
Description: In-Vitro Platelet Aggregation in PRP
Healthy male or female dogs were fasted for 8 hours prior to drawing blood; then 30 ml whole blood was collected using a butterfly needle and 30 cc plastic syringe with 3 ml of 0.129M buffered sodium citrate (3.8%). The syringe was rotated carefully as blood was drawn to mix the citrate. Platelet-rich plasma (PRP) was prepared by centrifugation at 975× g for 3.17 minutes at room temperature, allowing the centrifuge to coast to a stop without braking. The PRP was removed from the blood with a plastic pipette and placed in a plastic capped, 50 ml Corning conical sterile centrifuge tube which was held at room temperature. Platelet poor plasma (PPP) was prepared by centrifuging the remaining blood at 2000× g for 15 minutes at room temperature allowing the centrifuge to coast to a stop without braking. The PRP was adjusted with PPP to a count of 2-3×10^8 platelets per ml. 400 μl of the PRP preparation and 50 μl of the compound to be tested or saline were preincubated for 1 minute at 37° C. in a BioData aggregometer (BioData, Horsham, Pa.). 50 μl of adenosine 5'diphosphate (ADP) (50 μm final concentration) was added to the cuvettes and the aggregation was monitored for 1 minute. All compounds are tested in duplicate. Results are calculated as follows:
Percent of control=[(maximal OD minus initial OD of compound) divided by (maximal OD minus initial OD of control saline)]×100. The % inhibition=100-(percent of control).
In Table A, two readings given in a single box indicate that two trials, rather than a single trial, were run for that particular compound in that particular assay.

| Compound | IC50 [µM] |
| --- | --- |
| N=C(N)c1ccc(CCCCNC(=O)[C@@H](CC(=O)O)NC(=O)OCc2ccccc2)cc1 [Compound 52513, 4-[[4-[4-(aminoiminomethyl)phenyl]butyl]amino]-4-oxo-3(R)-[[(Phenylmethoxy)carbonyl]amino]butanoic acid] | 3 |
| N=C(N)c1ccc(CCCCNC(=O)[C@@H](CCC(=O)O)NC(=O)OCc2ccccc2)cc1 [Compound 52809, 5-[[4-[4-(aminoiminomethyl)phenyl]butyl]amino]-5-oxo-4(R)-[[(phenylmethoxy)carbonyl]amino]pentanoic acid] | 1.8 |
| N=C(N)c1ccc(CCCCNC(=O)[C@H](CCC(=O)O)NC(=O)OCc2ccccc2)cc1 [Compound 52828, 5-[[4-[4-(aminoiminomethyl)phenyl]butyl]amino]-5-oxo-4(S)-[[(phenylmethoxy)carbonyl]amino]pentanoic acid] | 4.2 |
| Cc1ccc(S(=O)(=O)N[C@H](CC(=O)O)C(=O)NCCCCc2ccc(C(=N)N)cc2)cc1 [Compound 53010, 4-[[4-[4-(aminoiminomethyl)phenyl]butyl]amino]-4-oxo-3R-[[(4-methylphenyl)sulfonyl]amino]butanoic acid] | 6 |
| CCOC(=O)CC[C@@H](NC(=O)OCc1ccccc1)C(=O)NCCCCc1ccc(C(=N)N)cc1 [Compound 53033, ethyl 5-[[4-[4-(aminoiminomethyl)phenyl]butyl]amino]-5-oxo-4R-[[(phenylmethoxy)carbonyl]amino]pentanoate, monohydrochloride] | 7 |
| CS(=O)(=O)N[C@H](CCC(=O)O)C(=O)NCCCCc1ccc(C(=N)N)cc1 [Compound 53065, 5-[[4-[4-(aminoiminomethyl)phenyl]butyl]amino]-5-oxo-4(R)-methylsulfonylaminopentanoic acid] | 3.5 |
| N=C(N)c1ccc(CCCCNC(=O)[C@H](CCC(=O)O)NC(=O)CCc2ccccc2)cc1 [Compound 53112, 5-[[4-[4-(aminoiminomethyl)phenyl]butyl]amino]-5-oxo-4S-[1-oxo-3-phenylpropylamino]pentanoic acid] | 1.9 |
| N=C(N)c1ccc(CCCCNC(=O)[C@@H](CC(=O)O)NC(=O)CCc2ccccc2)cc1 [Compound 53143, 4-[[4-[4-(aminoiminomethyl)phenyl]butyl]amino]-4-oxo-3R-[(1-oxo-3-phenylpropyl)amino]butanoic acid] | 4.1 |
| N=C(N)c1ccc(C#CCCCNC(=O)[C@@H](CCC(=O)O)NC(=O)OCc2ccccc2)cc1 [Compound 53314, 5-[[5-[4-(aminoiminomethyl)phenyl]-4-pentynyl]amino]-5-oxo-4R-[[(phenylmethoxy)carbonyl]amino]pentanoic acid] | 2 |
